Experimental data: patent publication US11690860B2, “Treatment of HCV infected patients with cirrhosis” (Atea Pharmaceuticals, Inc., priority 2018, dated 2023)
Entries after “also recorded” stand apart in the source; their conditions may differ. Read-outs that look alike come from different tables or passages of the source.

Assay: Plasma pharmacokinetics of Compound 1 and metabolite 1-7 (LC-MS/MS) in Parts C, D and E
Type: in vivo, human
Description: Doses were administered as the Compound 2 salt base. The free base Compound 1 equivalent is often given in parenthesis.
Part C was a randomized, double-blind, placebo-controlled MAD study divided into three cohorts. […] The dose escalation only proceeded following satisfactory review of the data.
HCV-infected patients were treatment-naïve with HCV RNA ≥5 log 10 IU/mL. HCV RNA was quantified using COBAS® AmpliPrep TaqMAN® v2.0 with LLQ of 15 IU/mL. Plasma drug levels were measured using LC-MS/MS. […] Cirrhosis was confirmed by prior liver biopsy or Fibroscan >12.5 kPa. […] Mean ages of enrolled subjects were 44, 39, and 56 years in the non-cirrhotic GT1b 600 mg dose cohort, non-cirrhotic GT3 cohort, and the cirrhotic cohort, respectively.
Plasma levels of metabolite 1-7 were measured using LC-MS/MS.

[1] = Part C, 150 to 600 mg Compound 2

C[C@@]1(F)[C@H](O)[C@@H](CO)O[C@H]1n1cnc2c(=O)[nH]c(N)nc21 [Metabolite 1-7, 2-amino-9-((2R,3R,4R,5R)-3-fluoro-4-hydroxy-5-(hydroxymethyl)-3-methyltetrahydrofuran-2-yl)-1,9-dihydro-6H-purin-6-one]
PK in cirrhotic compared with non-cirrhotic subjects (600 mg QD of Compound 2, Parts C/D vs Part E): similar; also recorded: comparable | time at which steady state was reached (NC subjects, based on metabolite 1-7 trough levels): after the third or fourth dose; also recorded: day 3 or 4 | higher trough upon reaching steady state (Part C): 50%-60% | time of peak formation after dosing (Part C): approximately 6 hours | dose proportionality of plasma exposure (peak and total) [1]: dose proportional from 150 to 300 mg and less than dose proportional from 300 mg to 600 mg | dose proportionality of trough levels [1]: mostly dose proportional | AUC Day 1 (AUC, for Metabolite 1-7) (Part C, NC GT1b, 150 mg/d Compound 2 QD, n=6): 800 ± 213 ng/mLxh | AUC Day 1 (AUC, for Metabolite 1-7) (Part C, NC GT1b, 300 mg/d Compound 2 QD, n=6): 1414 ± 220 ng/mLxh | AUC Day 1 (AUC, for Metabolite 1-7) (Part C, NC GT1b, 600 mg/d Compound 2 QD, n=6): 2204 ± 486 ng/mLxh | C24 h Day 1 (Part C, NC GT1b, 600 mg/d Compound 2 QD, n=6, trough after the first dose): 27.5 ± 5.21 ng/mL | AUC Day 1 (AUC, for Metabolite 1-7) (Part D, NC GT3, 600 mg/d Compound 2 QD, n=6): 2253 ± 595 ng/mLxh | C24 h Day 1 (Part D, NC GT3, 600 mg/d Compound 2 QD, n=6, trough after the first dose): 30.1 ± 10.9 ng/mL | AUC Day 1 (AUC, for Metabolite 1-7) (Part E, Child-Pugh A cirrhotic, 600 mg/d Compound 2 QD, n=6): 2625 ± 873 ng/mLxh | C24 h Day 1 (Part E, Child-Pugh A cirrhotic, 600 mg/d Compound 2 QD, n=6, trough after the first dose): 41.6 ± 12.9 ng/mL | steady state plasma trough level (cirrhotic patients, 600 mg of Compound 2): 45.7 ng/mL | AUC (human, plasma, 150 mg, AUC of metabolite 1-7, range for the dose, 150 mg Compound 2 QD 7 days (FIG. 7)): 397 to 1430 ng·h/mL | AUC (human, plasma, 300 mg, AUC of metabolite 1-7, range for the dose, 300 mg Compound 2 QD 7 days (FIG. 7)): 1300 to 2580 ng·h/mL | AUC (human, plasma, 600 mg, AUC of metabolite 1-7, range for the dose, 600 mg Compound 2 QD 7 days (FIG. 7)): 2250 to 5380 ng·h/mL | AUC (human, plasma, 600 mg, metabolite 1-7 exposure (AUC) achieved, 600 mg Compound 2 QD, all subjects, cirrhotic or non-cirrhotic): > 2000 ng·h/mL | concentration at 24 h (human, plasma, oral, 150 mg/d, Part C, NC GT1b, 150 mg/d Compound 2 QD, n=6, read-out: C24 h Day 1): 8.08 ± 3.48 ng/mL | Cmax (human, plasma, oral, 150 mg/d, Part C, NC GT1b, 150 mg/d Compound 2 QD, n=6, read-out: Cmax Day 1): 75.6 ± 15.4 ng/mL | concentration at 24 h (human, plasma, oral, 150 mg/d, steady state = mean of C24 at 72, 96, 120, 144 and 168 h, Part C, NC GT1b, 150 mg/d Compound 2 QD, n=6, read-out: C24 h SS): 12.8 ± 4.45 ng/mL | Cmax (human, plasma, oral, 150 mg/d, steady state, Part C, NC GT1b, 150 mg/d Compound 2 QD, n=6, read-out: Cmax SS): 81.1 ± 33.9 ng/mL | half-life (human, plasma, oral, 150 mg/d, steady state, Part C, NC GT1b, 150 mg/d Compound 2 QD, n=6, read-out: T1/2 SS (converted)): 12.5 h | Cmax (human, plasma, oral, 300 mg/d, Part C, NC GT1b, 300 mg/d Compound 2 QD, n=6, read-out: Cmax Day 1): 123 ± 16.6 ng/mL | concentration at 24 h (human, plasma, oral, 300 mg/d, steady state = mean of C24 at 72, 96, 120, 144 and 168 h, Part C, NC GT1b, 300 mg/d Compound 2 QD, n=6, read-out: C24 h SS): 26.1 ± 7.56 ng/mL | Cmax (human, plasma, oral, 300 mg/d, steady state, Part C, NC GT1b, 300 mg/d Compound 2 QD, n=6, read-out: Cmax SS): 220 ± 203 ng/mL | half-life (human, plasma, oral, 300 mg/d, steady state, Part C, NC GT1b, 300 mg/d Compound 2 QD, n=6, read-out: T1/2 SS (converted)): 24.5 h | Cmax (human, plasma, oral, 600 mg/d, Part C, NC GT1b, 600 mg/d Compound 2 QD, n=6, read-out: Cmax Day 1): 197 ± 57.1 ng/mL | concentration at 24 h (human, plasma, oral, 600 mg/d, Part C, NC GT1b, 600 mg/d Compound 2 QD, n=6, trough after the first dose, read-out: C24 h Day 1): 27.5 ng/mL | Cmax (human, plasma, oral, 600 mg/d, Part D, NC GT3, 600 mg/d Compound 2 QD, n=6, read-out: Cmax Day 1): 195 ± 42.9 ng/mL | concentration at 24 h (human, plasma, oral, 600 mg/d, Part D, NC GT3, 600 mg/d Compound 2 QD, n=6, trough after the first dose, read-out: C24 h Day 1): 30.1 ng/mL | Cmax (human, plasma, oral, 600 mg/d, Part E, Child-Pugh A cirrhotic, 600 mg/d Compound 2 QD, n=6, read-out: Cmax Day 1): 201 ± 68.1 ng/mL | concentration at 24 h (human, plasma, oral, 600 mg/d, Part E, Child-Pugh A cirrhotic, 600 mg/d Compound 2 QD, n=6, trough after the first dose, read-out: C24 h Day 1): 41.6 ng/mL | concentration at 24 h (human, plasma, oral, 600 mg/d, steady state = mean of C24 at 72, 96, 120, 144 and 168 h, Part C, NC GT1b, 600 mg/d Compound 2 QD, n=6, read-out: C24 h SS): 46.9 ± 15.5 ng/mL | concentration at 24 h (human, plasma, oral, 600 mg/d, steady state = mean of C24 at 72, 96, 120, 144 and 168 h, Part D, NC GT3, 600 mg/d Compound 2 QD, n=6, read-out: C24 h SS): 37.8 ± 11.4 ng/mL | concentration at 24 h (human, plasma, oral, 600 mg/d, steady state = mean of C24 at 72, 96, 120, 144 and 168 h, Part E, Child-Pugh A cirrhotic, 600 mg/d Compound 2 QD, n=6, read-out: C24 h SS): 69.9 ± 18.5 ng/mL | Cmax (human, plasma, oral, 600 mg/d, steady state, Part C, NC GT1b, 600 mg/d Compound 2 QD, n=6, read-out: Cmax SS): 233 ± 42.9 ng/mL | half-life (human, plasma, oral, 600 mg/d, steady state, Part C, NC GT1b, 600 mg/d Compound 2 QD, n=6, read-out: T1/2 SS (converted)): 28.9 h | Cmax (human, plasma, oral, 600 mg/d, steady state, Part D, NC GT3, 600 mg/d Compound 2 QD, n=6, read-out: Cmax SS): 263 ± 104 ng/mL | half-life (human, plasma, oral, 600 mg/d, steady state, Part D, NC GT3, 600 mg/d Compound 2 QD, n=6, read-out: T1/2 SS (converted)): 27.9 h | half-life (human, plasma, oral, 600 mg/d, steady state, Part E, Child-Pugh A cirrhotic, 600 mg/d Compound 2 QD, n=6, read-out: T1/2 SS (converted)): 24.4 h | Tmax (human, plasma, oral, 600 mg/d, steady state, Part E, Child-Pugh A cirrhotic, 600 mg/d Compound 2 QD, n=6, read-out: Tmax SS): 6 h | half-life (human, plasma, oral, Part C, read-out: half-life): 13 to 30 h | food effect on total and trough exposure (in vivo): No food effect | AUC SS (AUC, for Metabolite 1-7) (steady state, Part C, NC GT1b, 150 mg/d Compound 2 QD, n=6): 962 ± 409 ng/mLxh | AUC SS (AUC, for Metabolite 1-7) (steady state, Part C, NC GT1b, 300 mg/d Compound 2 QD, n=6): 1828 ± 453 ng/mLxh | AUC SS (AUC, for Metabolite 1-7) (steady state, Part C, NC GT1b, 600 mg/d Compound 2 QD, n=6): 2839 ± 572 ng/mLxh | AUC SS (AUC, for Metabolite 1-7) (steady state, Part D, NC GT3, 600 mg/d Compound 2 QD, n=6): 3117 ± 1048 ng/mLxh | AUC SS (AUC, for Metabolite 1-7) (steady state, Part E, Child-Pugh A cirrhotic, 600 mg/d Compound 2 QD, n=6): 3569 ± 1214 ng/mLxh | time at which steady state was reached (subjects with cirrhosis): day 5; also recorded: after the fifth dose
